Data on 3 compounds can be found in patent US20130195926A1, “MODULATION OF NITRIC OXIDE SIGNALING TO NORMALIZE TUMOR VASCULATURE” (The General Hospital Corporation, priority 2007, published 2013).

“Also recorded” adds a separate entry of the source.

For assay [1], the system named is MCaIV tumors. Nature of the assay: Intravital microscopy of MCaIV tumors under iNOS inhibition. Particulars: 1400 W 10 mg/kg/day by osmotic pump vs saline, 7 days. Type of assay: in vivo, mice. An excerpt:
FIGS. 12A-E show the effect of iNOS inhibition in MCaIV tumors and blood vessel morphology and function in MCaIV tumors. (A) Fluorescence immunohistochemistry image of iNOS expression (green), F4/80 positive macrophages (red) and DAPI stained nuclei (blue) in MCaIV tumors grown in the mammary fat pad. The bar indicates 50 μm. (B-C) MPLSM images of MCaIV tumors grown in αSMA^P-GFP mice treated with saline control (B) or an iNOS inhibitor 1400 W (C). Functional blood vessels were contrast-enhanced by i.v. injection of tetramethylrhodamine-dextran (red). αSMA-positive perivascular cells were visualized by GFP fluorescence (green). The bars indicate 100 μm. (D-E) MCaIV tumors grown in αSMAP-GFP mice were treated with saline (control) or iNOS inhibitor (1400 W) for 7 days. (D) Perivascular cell coverage. (N=4, each). (E) Vascular permeability (N=7, each). Data are mean±SEM. *p<0.05 vs. control.
Breast cancer cells in MCaIV murine mammary tumor model express iNOS similar to many human tumors, in contrast to the U87MG glioma model, in which tumor cells predominantly express neuronal NOS (nNOS). MCaIV tumors grown orthotopically in the mammary fat pad express iNOS and to a much lesser extent eNOS as determined by real time RT-PCR. […] Inhibition of iNOS would eliminate the majority of non-vascular NO production. […]

Assay [2] concerns U87MG tumors. Nature of the assay: Vessel morphology of U87 tumors in the cranial window by intravital microscopy. Type of assay: in vivo, mice. Particulars: L-NPA 20 mg/kg daily i.p. vs saline, cranial window. The method, then: Recombination activating gene 1 (Rag-1^−/−) mice backcrossed to C57BL/6 background or severe combined immunodeficiency (SCID) mice, bred and maintained in an gnotobiotic animal facility, were used. To obtain source tumor tissue, U87 tumor cells in culture (1×10^6 cells) were injected subcutaneously into Rag-1^−/− or SCID mice matching the recipient mice. When the tumor reached about 8 mm in diameter, it was excised after euthanasia and a small piece (about 1 mm^3) of viable tumor tissue was implanted into a cranial window or subcutaneously into the calf area of the right hindlegs of the mice as previously described (Kashiwagi, S., et al. 2005 J. Clin. Invest. 115, 1816-1827; Kozin, S. V., et al. 2001 Cancer Research 61, 39-44). All animal procedures were carried oat following the Public Health Service Policy on Humane Care of Laboratory Animals and approved by the Institutional Animal Care and Use Committee of Massachusetts General Hospital. […]
(§1) Angiogenesis and vessel morphology were determined in U87 and GL261 tumors grown in the cranial windows by intravital microscopy using multiphoton laserscanning microscopy (MPLSM) or single photon fluorescence microscopy (SPFM) when tumors reached about 7 mm^2. […] Using MPLSM, five locations with 200-μm thick imaging stack were recorded for each tumor. […]
Vascular parameters such as functional vessel density (the total length of perfused microvessels per unit area) and vessel diameter were analyzed by tracing each vessel segment using NIH image 1.63 as described elsewhere (Kashiwagi, S., et al. 2005 J. Clin. Invest. 115, 1816-1827). Tissue distribution of NO was visualized using MPLSM and the NO-sensitive fluorescence probe 4,5-diaminofluorescein (DAF-2) (0.5 mg i.v. Daiichi Pure Chemicals Co. Ltd) as described previously (Kashiwagi, S., et al. 2005 J. Clin. Invest. 115, 1816-1827). NO converts DAF-2 to 4,5-diaminofluorescein triazolium (DAF-2T) increasing fluorescence by a factor of 200. The DAF-2 associated fluorescence images were captured 60 min after i.v. injection. […]

The subject of assay [3] is U87MG tumors. The experiment in a line: Microvascular permeability of U87 tumors by intravital microscopy with tetramethylrhodamine-BSA. Format: in vivo, mice. To be noted: L-NPA 20 mg/kg daily i.p. vs saline, cranial window. The method, then:
To lower NO production from all NOS isoforms in the gliomas, mice received a pan-NOS inhibitor NG-Monomethyl-L-arginine monoacetate (L-NMMA) (Alexis Corp.) or non-active control compound D-NMMA (Alexis Corp.) at the rate of 7 mg/day by a constant release micro-osmotic pump (Model 1002, Alzet Osmotic Pumps, Durect Corp.) (Kashiwagi, S., et al. 2005 J. Clin. Invest. 115, 1816-1827). The micro-osmotic pumps were implanted in the back of the animals one day before the implantation of tumors. […]
The effective vascular permeability (P) was determined by SPFM as described previously (Fukumura, D., et al. 2001 Proc Natl Acad Sci USA 98, 2604-2609). In brief, the fluorescence intensity of the tumor tissue was intermittently measured for 20 min after the injection of tetramethylrhodamine-labeled bovine serum albumin (10 mg/ml, 0.1 ml per 25 g body weight). Permeability was calculated as P=(1−HT) V/S [1/(I0−Ib)*dI/dt+1/K], where I is the average fluorescence intensity of the whole image, I0 is the initial fluorescence intensity, and Ib is the background fluorescence intensity, HT is hematocrit, V and S are the total volume and surface area of vessels within the tissue volume covered by the surface image, respectively, and K is the time constant of BSA plasma clearance (Fukumura, D., et al. 2001 Proc Natl Acad Sci USA 98, 2604-2609).

For assay [4], the system named is GL261 tumors. Nature of the assay: Vessel morphology and function of GL261 tumors in the cranial window. Type of assay: in vivo. Particulars: L-NPA vs saline, SCID mice. The method, then:
FIGS. 7A-E show NOS expression in GL261 tumors and the effect of an nNOS selective inhibitor on vessel morphology and function in GL261 tumors. (A) NOS expression in GL261 tumors grown in the cranial window in SCID mice. Five micron paraffin block sections were immunostained using antibodies to eNOS, nNOS, iNOS or non-specific mouse IgG. The bar indicates 100 μm. Different from U87MG tumors, GL261 tumor cells express all three isoforms of NOS, especially strong expression of eNOS. (B) MPLSM microangiographies of GL261 tumors treated with saline and L-NPA. The bar indicates 200 μm. (C-D) Quantification of 3-D vessel density (C) and diameter (D) using MPLSM image stack and an automated image analysis system. N=6 each. (E) Microvascular permeability in GL261 tumors treated with saline (N=6) and L-NPA (N=6) was measured by intravital microscopy using tetramethylrhodamine-BSA. […]
as §1
The effective vascular permeability (P) was determined by SPFM as described previously (Fukumura, D., et al. 2001 Proc Natl Acad Sci USA 98, 2604-2609). […]

Assay [5] relates to 10T1/2 cells. The experiment in a line: cGMP production in cultured 10T1/2 cells. To be noted: 100 μM. Type of assay: cell-based. The method, then: FIGS. 13A-C show the role of the NO-sGC-cGMP pathway in perivascular cell recruitment and migration. (A) In bar graph form, cGMP production in cultured 10T1/2 cells in response to NO donor or PDE5 inhibitor. (B) In bar graph form, the migration of 10T1/2 cells in a transwell assay. 10T1/2 cell migration was assessed using Falcon HTS FluoroBlok inserts with 1 μm pores. GFP-expressing 10T1/2 cells were inoculated in the inserts, and HUVECs were inoculated in the outer well. Percent area of transwell filter covered by migrated 10T1/2 cells was determined. Medium only indicates no HUVECs in the outer well. ODQ, T-1032, Sildenafil, or Sildenafil+L-NMMA were added to the medium. *P<0.05 vs. control (HUVEC). (C) Images for transmigrated GFP-10T1/2 cells at the back side of the Fluoroblock insert after 10 hours with control vs. T-1032 treatment.
cGMP levels were examined in 10T1/2 cells following treatments of an NO donor DETANONOate or an inhibitor for phosphodiesterase 5 (PDE5), an enzyme which degrades cGMP.

Turning to `CC(=N)NCc1cccc(CN)c1` [1400 W, N-(3-(Aminomethyl)benzyl) acetamidine], the vascular permeability entry in assay [1] is listed as “significantly lower”. In addition, the perivascular cell coverage entry in assay [1] (αSMAP-GFP mice) is recorded as “significantly increased”.

`CCCN=C(N)NCCC[C@H](N)C(=O)O` [L-NPA, NG propyl-L-arginine]: the vessel density entry in assay [2] is recorded as “increased”. Also, the vascular permeability entry in assay [3] is recorded as “decreased”. Further, the “tumor vasculature (vessel morphology and function)” value in assay [4] is given as “did not improve; also recorded: did not alter”.

For the compound `NCCN(CCN)/[N+]([O-])=N/O` [DETANONOate], the cGMP level result in assay [5] is recorded as “increased”.
